Laboratory results as given in patent publication US9422267B2, “Fused pyrimidine compounds and use thereof” (Medivation Technologies, Inc., priority 2012, dated 2016).
Like-named read-outs stand apart in the source and are kept apart here. Each block holds one compound with its values, some of them ahead of it.

Assays:
[1] = target: T1, IR (Homo sapiens, UniProt P06213); experiment: In vitro IR enzymatic assay (ADP-Glo kinase assay); format: biochemical; settings: activated IR; for inhibition at 0.03 µM: 30 nM
T1 construct: purchased Millipore 14-803
T1 sequence (P06213 28-1382): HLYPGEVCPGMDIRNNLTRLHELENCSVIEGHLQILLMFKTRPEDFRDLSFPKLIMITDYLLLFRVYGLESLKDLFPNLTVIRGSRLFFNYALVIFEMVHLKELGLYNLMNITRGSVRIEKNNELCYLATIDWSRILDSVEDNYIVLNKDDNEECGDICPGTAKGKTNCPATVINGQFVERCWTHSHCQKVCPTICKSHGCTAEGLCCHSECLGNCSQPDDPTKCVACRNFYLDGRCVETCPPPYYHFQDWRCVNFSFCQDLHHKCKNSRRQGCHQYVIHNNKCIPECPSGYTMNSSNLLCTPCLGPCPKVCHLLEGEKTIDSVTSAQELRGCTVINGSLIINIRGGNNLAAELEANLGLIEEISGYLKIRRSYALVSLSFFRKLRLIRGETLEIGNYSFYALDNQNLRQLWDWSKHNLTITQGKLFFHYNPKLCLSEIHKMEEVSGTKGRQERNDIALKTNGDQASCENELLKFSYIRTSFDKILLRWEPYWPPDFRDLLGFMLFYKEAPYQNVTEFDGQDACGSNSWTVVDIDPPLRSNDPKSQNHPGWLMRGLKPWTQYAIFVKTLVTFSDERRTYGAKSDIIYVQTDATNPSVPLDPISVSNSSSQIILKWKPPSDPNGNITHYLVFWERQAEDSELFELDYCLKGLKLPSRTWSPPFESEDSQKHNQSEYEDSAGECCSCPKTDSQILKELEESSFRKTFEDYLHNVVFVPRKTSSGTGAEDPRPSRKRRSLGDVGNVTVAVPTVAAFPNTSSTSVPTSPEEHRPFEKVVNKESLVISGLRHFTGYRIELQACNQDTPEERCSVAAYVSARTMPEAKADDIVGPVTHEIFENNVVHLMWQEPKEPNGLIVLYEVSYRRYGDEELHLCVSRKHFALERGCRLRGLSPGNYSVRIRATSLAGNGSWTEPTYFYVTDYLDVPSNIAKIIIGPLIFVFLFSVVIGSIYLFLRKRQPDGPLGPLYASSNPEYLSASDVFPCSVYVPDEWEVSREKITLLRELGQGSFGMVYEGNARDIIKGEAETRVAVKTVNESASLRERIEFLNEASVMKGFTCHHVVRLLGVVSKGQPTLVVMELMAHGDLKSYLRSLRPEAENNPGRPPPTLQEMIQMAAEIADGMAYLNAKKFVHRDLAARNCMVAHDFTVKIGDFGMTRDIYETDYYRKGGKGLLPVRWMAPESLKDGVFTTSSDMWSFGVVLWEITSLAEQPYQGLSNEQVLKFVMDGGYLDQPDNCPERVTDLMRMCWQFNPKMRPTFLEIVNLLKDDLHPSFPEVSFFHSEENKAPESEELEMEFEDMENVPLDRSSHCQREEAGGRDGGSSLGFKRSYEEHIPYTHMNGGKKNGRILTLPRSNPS
Protocol: (§1) IC50 values of the compounds of the invention against IGF-1R and IR were measured in vitro using an ADP-Glo kinase assay Kit (Promega). […] Kinase reactions in both assays were conducted at 30° C. for 20 min with increasing concentrations of compounds of the invention.

[2] = target: T2, IGF1R (Homo sapiens, UniProt P08069); experiment: In vitro IGF-1R enzymatic assay (ADP-Glo kinase assay); format: biochemical; set-up: purchased Millipore 14-802; settings: activated IGF-1R; for inhibition at 0.03 µM: 30 nM
T2 sequence (P08069 31-1367): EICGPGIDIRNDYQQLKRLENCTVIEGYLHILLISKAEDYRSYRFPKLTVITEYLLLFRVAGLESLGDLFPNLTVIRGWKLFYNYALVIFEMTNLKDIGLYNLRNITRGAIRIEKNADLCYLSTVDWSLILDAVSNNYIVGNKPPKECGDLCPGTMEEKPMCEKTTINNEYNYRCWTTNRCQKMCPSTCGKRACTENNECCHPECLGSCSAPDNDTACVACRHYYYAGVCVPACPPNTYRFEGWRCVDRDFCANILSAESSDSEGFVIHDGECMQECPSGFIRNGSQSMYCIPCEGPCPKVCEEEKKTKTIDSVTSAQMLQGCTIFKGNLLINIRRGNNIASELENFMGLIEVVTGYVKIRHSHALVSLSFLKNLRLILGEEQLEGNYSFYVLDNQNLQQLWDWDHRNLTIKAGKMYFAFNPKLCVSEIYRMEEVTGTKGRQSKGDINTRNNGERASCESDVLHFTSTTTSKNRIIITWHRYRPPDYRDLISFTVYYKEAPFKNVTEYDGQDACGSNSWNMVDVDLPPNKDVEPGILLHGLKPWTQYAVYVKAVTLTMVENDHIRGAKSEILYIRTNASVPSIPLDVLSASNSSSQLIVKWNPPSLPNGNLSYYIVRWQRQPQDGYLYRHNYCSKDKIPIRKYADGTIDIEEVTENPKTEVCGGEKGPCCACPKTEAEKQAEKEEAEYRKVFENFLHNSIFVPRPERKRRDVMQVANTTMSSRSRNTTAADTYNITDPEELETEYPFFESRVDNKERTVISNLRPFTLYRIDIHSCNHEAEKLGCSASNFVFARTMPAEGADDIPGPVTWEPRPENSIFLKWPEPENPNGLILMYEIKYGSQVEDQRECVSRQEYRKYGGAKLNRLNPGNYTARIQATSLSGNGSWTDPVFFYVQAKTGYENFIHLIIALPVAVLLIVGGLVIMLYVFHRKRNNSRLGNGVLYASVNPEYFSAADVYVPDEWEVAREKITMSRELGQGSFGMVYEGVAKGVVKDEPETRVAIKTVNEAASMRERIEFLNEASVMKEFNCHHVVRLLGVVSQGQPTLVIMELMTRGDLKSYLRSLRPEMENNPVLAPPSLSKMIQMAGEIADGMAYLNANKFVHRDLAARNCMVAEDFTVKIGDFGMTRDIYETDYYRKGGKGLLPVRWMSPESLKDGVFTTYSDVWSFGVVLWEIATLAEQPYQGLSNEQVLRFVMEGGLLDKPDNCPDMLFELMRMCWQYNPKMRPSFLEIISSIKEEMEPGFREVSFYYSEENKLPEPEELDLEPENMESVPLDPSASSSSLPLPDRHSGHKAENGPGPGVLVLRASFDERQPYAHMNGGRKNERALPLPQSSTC
Protocol: as §1

[3] = target: T3, AXL (Homo sapiens, UniProt P30530); experiment: Caliper kinase profiling: AXL; settings: 0.01 μM
T3 sequence (P30530 26-894): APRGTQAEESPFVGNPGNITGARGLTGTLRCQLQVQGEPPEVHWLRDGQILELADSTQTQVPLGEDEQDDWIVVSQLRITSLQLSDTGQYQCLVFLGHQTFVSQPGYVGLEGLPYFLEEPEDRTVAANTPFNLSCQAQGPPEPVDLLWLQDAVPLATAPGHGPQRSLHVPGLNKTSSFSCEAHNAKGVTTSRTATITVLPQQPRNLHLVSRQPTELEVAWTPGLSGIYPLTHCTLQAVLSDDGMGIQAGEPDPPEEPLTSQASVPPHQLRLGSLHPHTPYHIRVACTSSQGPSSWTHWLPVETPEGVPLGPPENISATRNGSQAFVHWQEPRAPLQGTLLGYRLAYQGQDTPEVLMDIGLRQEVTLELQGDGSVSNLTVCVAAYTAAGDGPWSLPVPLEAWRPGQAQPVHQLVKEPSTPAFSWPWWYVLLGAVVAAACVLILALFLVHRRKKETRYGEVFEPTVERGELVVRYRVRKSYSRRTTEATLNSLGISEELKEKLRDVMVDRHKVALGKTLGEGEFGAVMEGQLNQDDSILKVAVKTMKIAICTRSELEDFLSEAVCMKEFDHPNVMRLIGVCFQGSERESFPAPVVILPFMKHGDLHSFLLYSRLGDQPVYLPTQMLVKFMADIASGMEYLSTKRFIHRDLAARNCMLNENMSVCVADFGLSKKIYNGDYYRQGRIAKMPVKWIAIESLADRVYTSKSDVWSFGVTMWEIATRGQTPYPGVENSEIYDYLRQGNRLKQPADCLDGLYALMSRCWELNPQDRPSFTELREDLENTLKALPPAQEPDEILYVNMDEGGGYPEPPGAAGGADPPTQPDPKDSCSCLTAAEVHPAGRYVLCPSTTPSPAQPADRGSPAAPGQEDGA
Protocol: (§7) The compound was tested at concentrations of 1.0×10^−8 and 1.0×10^−9 M in the RapidKinase192™ panel in duplicate. […] The screening was performed using the Caliper EZReader2, a 4-sipper LabChip, and ProfilerPro Kinase Selectivity Assay Kits 1 and 2. The assay measures the conversion of a fluorescent peptide substrate to a phosphorylated product. Briefly, the reaction mixture was introduced through a capillary sipper onto the microfluidic chip, where the substrate and product were electrophoretically separated and detected by laser-induced fluorescence. The time-dependent fluorescence signal indicates the extent of the reaction.
(§8) The kinases tested were AurA, AurB, AurC, AXL, FAK2, IGF1R, InsR, Mer, MET, TrkB and TrkC.
(§9) The assays were conducted using the Caliper LabChip 3000 and a 12-sipper LabChip as described above.

[4] = target: FAK2(PTK2b) (Homo sapiens, UniProt Q14289); experiment: Caliper kinase assay: FAK2(PTK2b); settings: 0.01 μM
FAK2(PTK2b), sequence (Q14289 whole entry): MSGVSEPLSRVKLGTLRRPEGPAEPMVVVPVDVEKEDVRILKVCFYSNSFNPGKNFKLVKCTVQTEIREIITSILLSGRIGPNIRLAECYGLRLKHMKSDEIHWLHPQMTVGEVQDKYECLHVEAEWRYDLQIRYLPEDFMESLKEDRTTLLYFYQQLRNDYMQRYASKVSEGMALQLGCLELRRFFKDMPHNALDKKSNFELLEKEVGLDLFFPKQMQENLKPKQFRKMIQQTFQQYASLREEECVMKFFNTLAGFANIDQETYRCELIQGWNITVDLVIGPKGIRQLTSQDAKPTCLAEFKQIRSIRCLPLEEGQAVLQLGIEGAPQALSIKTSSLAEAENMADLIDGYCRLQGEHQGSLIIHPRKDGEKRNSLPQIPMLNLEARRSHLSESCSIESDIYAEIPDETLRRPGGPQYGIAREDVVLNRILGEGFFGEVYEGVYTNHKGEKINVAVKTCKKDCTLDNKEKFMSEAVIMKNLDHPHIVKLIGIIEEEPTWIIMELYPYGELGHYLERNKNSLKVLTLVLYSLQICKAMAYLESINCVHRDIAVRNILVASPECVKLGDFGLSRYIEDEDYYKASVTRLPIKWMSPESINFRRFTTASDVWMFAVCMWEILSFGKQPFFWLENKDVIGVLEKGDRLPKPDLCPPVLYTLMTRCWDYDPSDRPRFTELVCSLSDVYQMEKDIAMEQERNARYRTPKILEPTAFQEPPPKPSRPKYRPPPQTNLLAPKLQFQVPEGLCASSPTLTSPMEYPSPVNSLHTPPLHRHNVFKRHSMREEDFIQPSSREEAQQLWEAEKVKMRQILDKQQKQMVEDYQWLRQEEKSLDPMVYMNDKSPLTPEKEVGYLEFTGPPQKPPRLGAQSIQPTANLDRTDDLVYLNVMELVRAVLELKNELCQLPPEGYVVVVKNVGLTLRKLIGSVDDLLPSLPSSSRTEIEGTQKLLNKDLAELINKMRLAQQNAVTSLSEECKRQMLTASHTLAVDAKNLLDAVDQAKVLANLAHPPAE
Protocol: as §7, §8, §9

[5] = target: NTRK2 (TRKB) (Homo sapiens, UniProt Q16620); experiment: Caliper kinase profiling: NTRK2 (TRKB); settings: 0.01 μM
Protocol: as §7, §8, §9

[6] = target: TRKC (NTRK3) (Homo sapiens, UniProt Q16288); experiment: Caliper kinase profiling: TRKC (NTRK3); settings: 0.01 μM
TRKC (NTRK3), sequence (Q16288 32-839): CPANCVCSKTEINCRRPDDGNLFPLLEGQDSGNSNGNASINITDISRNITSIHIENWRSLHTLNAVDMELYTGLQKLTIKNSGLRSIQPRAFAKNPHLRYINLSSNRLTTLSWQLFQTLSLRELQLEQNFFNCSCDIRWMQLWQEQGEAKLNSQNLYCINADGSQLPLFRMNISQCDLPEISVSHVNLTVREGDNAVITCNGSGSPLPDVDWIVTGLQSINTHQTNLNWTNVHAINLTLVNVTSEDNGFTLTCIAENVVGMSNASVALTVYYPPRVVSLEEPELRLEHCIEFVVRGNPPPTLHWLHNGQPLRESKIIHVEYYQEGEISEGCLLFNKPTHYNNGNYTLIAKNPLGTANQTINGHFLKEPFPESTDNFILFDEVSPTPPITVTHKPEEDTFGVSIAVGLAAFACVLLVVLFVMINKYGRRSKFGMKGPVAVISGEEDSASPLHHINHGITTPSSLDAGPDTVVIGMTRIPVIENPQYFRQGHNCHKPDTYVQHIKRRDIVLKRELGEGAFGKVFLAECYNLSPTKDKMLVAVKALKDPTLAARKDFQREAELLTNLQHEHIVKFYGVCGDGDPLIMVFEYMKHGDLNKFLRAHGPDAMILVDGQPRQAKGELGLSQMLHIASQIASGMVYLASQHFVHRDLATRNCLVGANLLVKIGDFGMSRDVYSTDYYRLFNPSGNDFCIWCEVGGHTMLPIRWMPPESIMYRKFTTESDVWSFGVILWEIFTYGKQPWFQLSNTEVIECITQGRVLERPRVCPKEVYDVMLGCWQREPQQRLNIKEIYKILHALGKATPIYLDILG
Protocol: as §7, §8, §9

[7] = tested on: Akt phosphorylation induced by IGF-1R in HT-29 cells; experiment: Western blot analysis of Akt phosphorylation induced by IGF-1R; format: cell-based, Human; settings: then IGF-1 10 ng/mL 10 min, HT-29
Protocol: Inhibition of Akt phosphorylation induced by IGF-1R was studied by western blot analysis. Human colon carcinoma HT-29 cells were seeded at a density of 8×10^4 cells/well in a 24-well plate and grown in DME/F12 media containing 10% FBS for 24 h. The cells were then depleted of serum by incubation in DME/F12 media lacking FBS for 24 h. […] […] Lysed cells were centrifuged at 13,000 rpm for 15 min and the protein concentration soluble fraction (supernatant) of each sample was determined using a BCA protein assay (Pierce).

[8] = target: KDR (Homo sapiens, UniProt P35968); experiment: Caliper kinase profiling: KDR; format: biochemical; settings: read-out: Average % Inh @ 1 μM
Protocol: as §7

[9] = tested on: HT-29; experiment: Cell Titer-Glo cell viability: HT-29; format: cell-based; settings: Homo sapiens, HT-29, 72 h
Protocol: (§2) This assay quantitates the ATP present in order to determine the number of viable cells in culture. Briefly, the compounds were incubated with the cells for 72 h, followed by cell lysis. The resulting luminescent signal is proportional to the amount of ATP present and, therefore, directly proportional to the number of cells present in culture.
(§3) Compound nos. […] These cell lines are derived from human lung carcinoma, colon adenocarcinoma, colon adenocarcinoma, colon carcinoma, acute promyelocytic leukemia, colon adenocarcinoma, colon adenocarcinoma (from metastatic site lymph node), respectively.
(§4) Compounds 2b, 5, 6b and 10a were tested along with derivatives in viability assays as described above by Caliper LifeSciences Systems (Hanover, Md.), in A549, HCT-15, HCT-116, MCF-7, MDA-MB-231, OVCAR3, T47D, COLO205, HT-29, BT-20, HCC1187, HL-60, MDA-MB-175, SW-620, and UACC812 cells.

[10] = tested on: HL-60; experiment: Cell Titer-Glo cell viability: HL-60; format: cell-based, human; settings: Homo sapiens, HL-60, 72 h
Protocol: as §2, §3, §4

[11] = tested on: A549; experiment: Cell Titer-Glo cell viability: A549; format: cell-based; settings: Homo sapiens, A549, 72 h, A549, non-small lung carcinoma
Protocol: as §2, §3, §4

[12] = tested on: COLO 205; experiment: Cell Titer-Glo cell viability: COLO 205; format: cell-based; settings: Homo sapiens, COLO 205, 72 h
Protocol: as §2, §3, §4

[13] = tested on: HCT-15; experiment: Cell Titer-Glo cell viability: HCT-15; format: cell-based; settings: Homo sapiens, HCT-15, 72 h, HCT15, colon carcinoma
Protocol: as §2, §3, §4

[14] = tested on: HCT-116; experiment: Cell Titer-Glo cell viability: HCT-116; format: cell-based; settings: Homo sapiens, HCT116, colon carcinoma
Protocol: as §2, §3, §4

[15] = tested on: SW-620; experiment: Cell Titer-Glo cell viability: SW-620; format: cell-based; settings: Homo sapiens, SW-620, 72 h, SW-620, metastatic colorectal cancer
Protocol: as §2, §3, §4

[16] = target: T2, IGF1R; experiment: Caliper kinase profiling: IGF1R; format: biochemical; set-up: purchased Caliper LifeSciences (ProfilerPro Kinase Selectivity Assay Kits); settings: 1 μM, read-out: Average % Inh @ 1 μM
Protocol: as §7

[17] = tested on: BT-20; experiment: Cell Titer-Glo cell viability: BT-20; format: cell-based; settings: Homo sapiens; BT-20, breast cancer; 72 h incubation, Cell Titer-Glo
Protocol: (§5) Compound nos. […] This panel of cell lines includes an ER− breast carcinoma, primary breast ductal carcinoma, prostate adenocarcinoma, mammary adenocarcinoma, mammary ductal carcinoma, mammary ductal carcinoma, ovary adenocarcinoma, ER+ breast carcinoma, ER-HER2+ mammary ductal carcinoma and an ER+ mammary ductal carcinoma, respectively.
as §2, §4

[18] = tested on: LNCaP; experiment: Cell Titer-Glo cell viability: LNCaP; format: cell-based; settings: Homo sapiens, Prostate cancer, 72 h incubation, Cell Titer-Glo
Protocol: as §5, §2

[19] = tested on: MCF-7; experiment: Cell Titer-Glo cell viability: MCF-7; format: cell-based; settings: Homo sapiens; MCF7, breast cancer; 72 h incubation, Cell Titer-Glo
Protocol: as §5, §2, §4

[20] = tested on: T47D; experiment: Cell Titer-Glo cell viability: T47D; format: cell-based; settings: Homo sapiens, breast cancer, 72 h incubation, Cell Titer-Glo
Protocol: as §5, §2, §4

[21] = tested on: MDA MB 175; experiment: Cell Titer-Glo cell viability: MDA MB 175; format: cell-based; settings: MDA-MB-175, breast cancer; 72 h incubation, Cell Titer-Glo
Protocol: as §5, §2, §4
(§6) The inhibitory effects of Compound 8a were tested in two cell lines.

[22] = tested on: MDA MB 231; experiment: Cell Titer-Glo cell viability: MDA MB 231; format: cell-based; settings: Homo sapiens, MDAMB231, breast cancer, 72 h incubation, Cell Titer-Glo
Protocol: as §5, §2, §4

[23] = tested on: OVCAR-3; experiment: Cell Titer-Glo cell viability: OVCAR-3; format: cell-based; settings: Homo sapiens, OVCAR3, ovarian cancer, 72 h incubation, Cell Titer-Glo
Protocol: as §5, §2, §4

[24] = tested on: UACC 812; experiment: Cell Titer-Glo cell viability: UACC 812; format: cell-based; settings: Homo sapiens; UACC 812, breast cancer; 72 h incubation, Cell Titer-Glo
Protocol: as §5, §2, §4, §6

[25] = tested on: HCC 1187; experiment: Cell Titer-Glo cell viability: HCC 1187; format: cell-based; settings: Homo sapiens, HCC1187; HCC-1187, breast cancer; 72 h incubation, Cell Titer-Glo
Protocol: as §5, §2, §4

[26] = average, read-out: % Inh @ 30 nM Avg
[27] = replicate N1, read-out: % Inh @ 30 nM (N1)
[28] = replicate N2, read-out: % Inh @ 30 nM (N2)
[29] = 72 h incubation, Cell Titer-Glo

IC50 ([1]; read-out: IC50): 0.0072 µM | IC50 ([2]; read-out: IC50): 0.0058 µM | inhibition of AXL in panel of 11 kinases [3]: strongly inhibited | inhibition of FAK2 in panel of 11 kinases [4]: strongly inhibited | inhibition of TrkB in panel of 11 kinases [5]: strongly inhibited | inhibition of TrkC in panel of 11 kinases [6]: strongly inhibited
SMILES: O=C(Nc1ccc(F)nc1)C1CC(O)CN1c1nc2c(c(Nc3cc(C4CC4)[nH]n3)n1)CCC2 (single isomer, unassigned) [Compound 10d, 1-(4-(5-cyclopropyl-1H-pyrazol-3-ylamino)-6,7-dihydro-5H-cyclopenta[d]pyrimidin-2-yl)-N-(6-fluoropyridin-3-yl)-4-hydroxypyrrolidine-2-carboxamide]

inhibition at 1 µM [8]: 40 to 59% | IC50 ([9]; HT29, colon adenocarcinoma (second entry of the table), 72 h): < 10 µM | IC50 ([9]; HT-29, colon cancer, 72 h): < 100 µM | IC50 ([10]; HL60, promyelocytic leukemia (second entry of the table), 72 h): < 10 µM | IC50 ([10]; HL-60, promyelocytic leukemia, 72 h): < 100 µM | IC50 ([11]; 72 h): 10 µM | IC50 ([12]; COLO-205, colon adenocarcinoma, 72 h): 1 µM | IC50 ([13]; 72 h): < 100 µM | IC50 ([14]; 72 h): < 100 µM | IC50 ([15]; 72 h): < 100 µM | inhibition at 1 µM [16]: > 60%
SMILES: CC1(O)CC(c2nc(-c3ccc4ccc(-c5ccccc5)nc4c3)c3c(N)nccn23)C1 (stereo not shown) [OSI-906, 3-[8-Amino-1-(2-phenyl-7-quinolyl)imidazo[1,5-a]pyrazin-3-yl]-1-methyl-cyclobutanol, reference compound]
phosphorylated AKT levels normalized to actin levels (pAKT/actin) ([7]; 1 nM compound 2 h): 0.85 | phosphorylated AKT levels normalized to actin levels (pAKT/actin) ([7]; 100 nM compound 2 h): 0.40

inhibition at 0.03 µM [1, 26]: 3% | inhibition at 0.03 µM [1, 27]: 2% | inhibition at 0.03 µM [1, 28]: 5% | inhibition at 0.03 µM [2, 26]: 18% | inhibition at 0.03 µM [2, 27]: 12% | inhibition at 0.03 µM [2, 28]: 24%
SMILES: O=C(Nc1ccc(F)nc1)C1CCCCN1c1nc2c(c(Nc3cc(C4CCCC4)[nH]n3)n1)CCC2 (single isomer, unassigned) [Compound 17a, 1-(4-(5-cyclopentyl-1H-pyrazol-3-ylamino)-6,7-dihydro-5H-cyclopenta[d]pyrimidin-2-yl)-N-(6-fluoropyridin-3-yl)piperidine-2-carboxamide]
phosphorylated AKT levels normalized to actin levels (pAKT/actin) ([7]; 0.1 nM compound 2 h): 0.89

IC50 ([9]; HT-29, colon adenocarcinoma, 72 h incubation, Cell Titer-Glo): < 0.1 µM | IC50 ([10]; HL60, promyelocytic leukemia, 72 h incubation, Cell Titer-Glo): 0.1 µM | IC50 [11, 29]: < 10 µM | IC50 ([12]; COLO205, colon cancer, 72 h incubation, Cell Titer-Glo): < 0.1 µM | IC50 [13, 29]: < 100 µM | IC50 [14, 29]: 10 µM | IC50 [15, 29]: < 10 µM | IC50 [17]: < 10 µM | IC50 [18]: < 1 µM | IC50 [19]: < 1 µM | IC50 [20]: 1 µM | IC50 [23]: 1 µM | IC50 [25]: < 1 µM | inhibition of AXL in panel of 11 kinases [3]: strongly inhibited | inhibition of FAK2 in panel of 11 kinases [4]: strongly inhibited | inhibition of TrkB in panel of 11 kinases [5]: strongly inhibited | inhibition of TrkC in panel of 11 kinases [6]: strongly inhibited
SMILES: O=C(Nc1ccc(F)nc1)C1CC(O)CN1c1nc2c(c(Nc3cc(C4CC4)[nH]n3)n1)CCC2 (single isomer, unassigned) [Compound 10a]
phosphorylated AKT levels normalized to actin levels (pAKT/actin) ([7]; 1 nM compound 2 h): 0.54 | phosphorylated AKT levels normalized to actin levels (pAKT/actin) ([7]; 10 nM compound 2 h): 0.00 | phosphorylated AKT levels normalized to actin levels (pAKT/actin) ([7]; 100 nM compound 2 h): 0.01 | IC50 [21]: < 10 µM | IC50 [22]: 10 µM | IC50 [24]: < 10 µM
